Consider 89 compounds from a melting point compilation (Tetko et al.; mined from patent text by program, amines drawn as free bases though some values may be those of a salt).

One may read the melting point as the temperature, or range, at which the solid turns liquid. As for `COc1cc2ncnc(Nc3cccc(Cl)c3F)c2cc1O`, the melting point was in the range of 265 to 268 °C.
As for `CCOC(=O)c1cccc(-c2ccc3c(c2)N(C(=O)Cc2cccc(C(F)(F)F)c2)CC3)c1`, the figure is 222 to 223 °C; as for `Cc1cc(C(=O)CS(C)(=O)=O)cc(C)c1N(C)C`, 132 to 133 °C.
As for `O=c1c2ccc(Cl)cc2[nH]c2c(O)nn(Cc3cc4ccccc4s3)c(=O)c12`, the figure is more than 300 °C; as for `CN1CCN([C@H]2CC[C@@H](N)CC2)C1=O`, 81 to 87 °C.
The compound `COC(=O)c1ccc(CC(=O)Nc2cccc(/C=C/c3nc(C4CCC4)cs3)c2)cc1` had a melting point of 163 to 164 °C.
As for `O=C1Nc2cc(Cl)ccc2Sc2ccccc21`, the figure is 163 to 165 °C; as for `NC1=CN(N)NN=C1c1cccc(Cl)c1Cl`, 216 to 218 °C; as for `COc1cc(C(NC(=O)OC(C)(C)C)C(c2ccccc2)[N+](=O)[O-])ccc1Br` (centres undefined), 157 to 159 °C.
Consider `COc1ccc([N+](=O)[O-])c2c1CC(NC(C)=O)CC2` (centres undefined), for which the melting point lay in the range of 205 to 206 °C.
`COC(=O)c1cc(OC(=S)N(C)C)c2cc(-c3ccc(OC)c(C45CC6CC(CC(C6)C4)C5)c3)ccc2c1C`: the melting point was 137 to 138 °C.
For the compound `O=C(Nc1c(C(O)(C(F)(F)F)C(F)(F)F)ccc2ccccc12)C1CC1`, the melting point was in the range of 163 to 165 °C.
`O=C1NC(=O)C(N2C(=O)c3ccccc3C2=O)CC1c1ccccc1` (centres undefined) displayed a melting point of 228 to 231 °C.
As for `CC=CC(C)=C1C(=O)OC(=O)C1c1cc(C)n(-c2ccccc2)c1C` (centres undefined), the figure is 172 °C.
Then `N#CCc1ccc(-c2nc3ccccc3o2)cc1N`, with 198 to 199 °C; and `CC(C)(C)OC(=O)Nc1c(F)ccc2c1OC(C)(C)O2`, with 106 to 107 °C.
Compound `CCOC(=O)/C=C/c1ccc(OCCC(C)(C)O)cc1Oc1ncc(C(F)(F)F)cc1Cl` returned a melting point of 63.5 to 66 °C.
As for `O=c1ncc(Br)cn1CC(O)C(Cl)(Cl)Cl` (centres undefined), the figure is 210 to 212 °C; as for `Cc1cc(C)cc(-c2nc(N)sc2-c2ccnc(NCc3ccccc3)c2)c1`, 99 to 102 °C.
Take `CCOC(=O)COc1c(Cl)c(Cl)c2c(-c3ccccc3F)noc2c1Cl`: the melting point was 140 to 143 °C.
Compound `Cn1c(-c2nnc3ccc(NC=O)nn23)cnc1[N+](=O)[O-]` registered a melting point of 224 to 226 °C.
Then `O=C(O)c1c(Oc2ccccc2)cccc1Oc1ccccc1`, with 164 to 165 °C; and `N#Cc1c2c(c3c(c1N1CCCCC1)Cc1ccccc1-3)Cc1ccccc1-2`, with 186 to 188 °C.
Then `CCCCOCCOc1ccc(-c2ccc3c(c2)C=C(C(=O)Nc2ccc(N(C)Cc4nncn4CCC)cc2)CCN3CCC)cc1`, with 131 to 133 °C; and `CCCCCNc1c(C(=O)OCC)cnc2cn[nH]c12`, with 153 to 155 °C.
Then `Oc1ccc(-c2cnc(NC(=S)Cc3ccccc3)c(Cc3ccccc3)n2)cc1`, with 195 to 198 °C; and `COc1cc([N+](=O)[O-])c2nccc(C)c2c1OCCCCCc1cccs1`, with 51 to 54 °C.
Take `CCOC(=O)NN=C(c1ccc(Cl)cc1)c1ccc(NS(C)(=O)=O)cc1`: the melting point was in the range of 198 to 200 °C.
Regarding `CCC1(CC)C(=O)ON(C(=O)c2ccccc2)C1=O`, the melting point fell in the range of 76 to 79 °C.
As for `O=c1c2c(Cc3ccc(F)cc3)n[nH]c2c2cccnc2n1-c1cccc(OC(F)(F)F)c1`, the figure is 226 to 228 °C.
Then `CCOC(=O)C(C#N)=CC1C=C(OC)C(C(=O)OC)=C(OC)C1` (centres undefined), with 119 to 121 °C.
The compound `COc1cccc(-c2cccc(Oc3nc(OC)cc(OC)n3)c2C(=O)O)n1` returned a melting point of 158 to 160 °C.
Compound `COc1cc2c(cc1Nc1ncc(Cl)c(Nc3ccccc3S(=O)(=O)N(C)C)n1)CCN(CC(=O)N1CCCC1)CC2` returned a melting point of 75 to 93 °C.
As for `CCn1c(C)nc2cc(C(=O)O)ccc21`, the figure is more than 250 °C; as for `CC(C)(C)OC(=O)c1cc[nH]c1`, 82 to 84 °C; as for `CS(=O)(=O)Nc1ccc(OCCCN2CCC(OC(c3ccccc3)c3ccccc3)CC2)cc1`, 41 to 43 °C.
Then `CCCCc1nc2c(N)nc3cc(-c4ccsc4)ccc3c2n1CC(C)C`, with 229 to 230 °C; and `COC(=O)CCC(=O)CCl`, with 8 to 13 °C; and `CCOC(=O)c1sc(N2CCN(Cc3ccc(C(F)(F)F)cc3)C2=O)nc1C`, with 126 to 127 °C.
As for `C=CCOc1cccc(-c2n[nH]c(-c3ccccc3C)n2)c1`, the figure is 72 to 75 °C.
In turn, `Cc1ccc(-c2ccc(C(=O)Nc3ccc4cc(CN5CCCC5)cnc4c3F)cc2)cc1` had a melting point of 210 to 213 °C.
As for `Nc1ccc(-c2cc3c(N4CCCc5ccccc54)ncnc3[nH]2)cc1`, the figure is 243 to 245 °C; as for `c1ccc(OCCCCCCN2CCN(c3nccs3)CC2)cc1`, 37 to 39 °C; as for `C(#Cc1cnc2ccccc2c1)CCN1CC=C(c2ccccc2)CC1`, 94.3 to 95.8 °C.
As for `O=C1CCc2c(Br)cc([N+](=O)[O-])c(O)c21`, the figure is 149 to 151 °C; as for `O=C1NC(=O)C(Cc2ccc(OCCN3CCc4ccccc43)cc2)S1` (centres undefined), 133 to 136 °C; as for `O=C1N=CN(c2ccc(Cl)cc2)C12CCN(Cc1ccccc1)CC2`, 217 to 219 °C.
In turn, `COC(=O)c1ccc(-c2nc(-c3ccc(C(F)(F)F)cc3)no2)c(NC(=O)C(F)(F)F)c1` yielded a melting point of 188 to 189 °C.
As for `CCCN1CCCC1CNC(=O)c1cc(S(N)(=O)=O)cc2c1OC(C)C2` (centres undefined), the figure is 177 to 180 °C.
Compound `CCCCN1CC(C(=O)OC)N(S(=O)(=O)c2ccc(-c3ccc(Br)cc3)cc2)CC1=O` (centres undefined) gave a melting point of 113 to 115 °C.
Turning to `CCN(c1c(Cl)c(C(F)(F)F)cc2[nH]c(=O)c(=O)[nH]c12)S(C)(=O)=O`, the melting point is more than 300 °C.
On to `C=C=Cc1c(C)nc2c(OCc3ccccc3C)cccn12`, for which the melting point lay in the range of 88 to 89 °C.
Turning to `CC(C)(C)c1coc(N)c1C#N`, the melting point is 86 °C.
The compound `COCOc1c(NC(=O)NN)cc(OC)cc1C(C)(C)C` yielded a melting point of 132 to 134 °C.
Then `COC(=O)c1ccc2c(c1)C(S(=O)(=O)c1ccccc1)CC(=O)CO2` (centres undefined), with 128 to 130 °C; and `COc1cccc(S(=O)(=O)c2ccc(C)nc2Nc2c(C)cc(C)cc2C)c1`, with 87 to 88 °C; and `Nc1cccc(C(=O)c2cc3c(Oc4ccc(Cl)cc4)cncc3s2)c1`, with 174 to 178 °C.
Take `CCCCOc1cc(CN)cc(S(N)(=O)=O)c1Cc1ccccc1`: the melting point is 176 to 179 °C.
As for `N#Cc1ccccc1OCCCCC(=O)O`, the figure is 87 to 89 °C; as for `COC(=O)c1oc2c(sc3ccccc32)c1O`, 124 to 125 °C.
Then `CC(C)(COc1ccc(Cl)cc1)C(O)C(Oc1ccc(Cl)cc1)n1ccnc1` (centres undefined), with 142 to 144 °C; and `CCC(Oc1ccc(C=Cc2nc[nH]n2)cc1)C(N)=O` (centres undefined), with 150 °C.
Then `CC1(C(=O)c2c[nH]c3ncc(-c4cccc(CCCO)c4)nc23)CCCCC1`, with 80 to 83 °C.
The compound `COc1cc2ccc(C(=O)N3CCN(C(=O)c4cc(OC)c(OC)c(OC)c4)CC3)cc2cc1OC` registered a melting point of 224 to 226 °C.
`CCCc1c(OCCCCCc2c(Cl)c(Cl)c(Cl)c(OC)c2OC)ccc(C(=O)OC)c1O` had a melting point of 84 to 87 °C.
As for `COc1c(NC(=O)c2c(F)cc(F)cc2F)cccc1C(=O)Nc1c(Cl)cc(C(F)(C(F)(F)F)C(F)(F)C(F)(F)F)cc1Br` (centres undefined), the figure is 179 °C.
Then `Nc1ccc2c(c1)S(=O)(=O)N=C2NCCCOc1cccc(CN2CCCCC2)c1`, with 191 to 193 °C; and `O=Cc1ccc(OCCCCCCOc2ccc(C=O)cc2)cc1`, with 110 to 111 °C.
As for `COC(=O)C(Br)c1ccc2c(c1)OCO2` (centres undefined), the figure is 39 to 41 °C.
For the compound `CCOC(=O)Nc1cccc(-c2ccc3nnc(C)n3n2)c1`, the melting point lay within 232 to 235 °C.
In the case of `NC[C@H]1COc2ccc(F)c(-c3ccc(Cl)cc3Cl)c2O1`, the melting point was found to be 65 °C.
Turning to `CC1COc2c(N3Cc4ccc(N)cc4C3)c(F)cc3c(=O)c(C(=O)O)cn1c23` (centres undefined), the melting point was 272 to 276 °C.
In turn, `CCOC(=O)C1=C(C)NC(c2csc(C)n2)=NC1c1cccc(O)c1` (centres undefined) gave a melting point of 175 to 178 °C.
As for `C=CCOC(=O)c1ccc(N=C(NC)c2ccc(OC)c(C34CC5CC(CC(C5)C3)C4)c2)cc1`, the figure is 77 to 79 °C; as for `O=C(Nc1cccc(O)c1)C(=O)N1CCC(Cc2ccc(F)cc2)CC1`, 175 to 179 °C.
As for `CCC(C)CNC(=S)NS(=O)(=O)c1sc(Cl)cc1N` (centres undefined), the figure is 116 to 118 °C; as for `CCNC(=NNc1c(Cl)cc(C(F)(F)F)cc1Cl)C1(C)CC1(Cl)Cl` (centres undefined), 79 °C.
In the case of `CC1C(=O)Oc2c(Oc3ccccc3Cl)cccc21` (centres undefined), the melting point lay within 92 to 95 °C.
With `O=C(OCC1CCc2c(O)cccc2C1)N(c1ccccc1)c1ccccc1` (centres undefined), the melting point was 96 to 98 °C.
Then `O=C(NCCC1CC1)c1ccc(N2CCN(C(=S)c3ccccc3C(F)(F)F)CC2)nn1`, with 117 to 120 °C; and `CCOC(=O)CCCNc1ccc(OCC(C)(C)C)c(C#N)c1`, with 88 °C.
In turn, `N#Cc1cc(N)ccc1N(CCO)CCO` gave a melting point of 38 °C.
Then `CC(C)(C)OC(=O)N1CCC(C#N)(c2cccc(C(F)(F)F)c2)CC1`, with 72 to 73 °C.
Then `COc1cc(/C=C/C(=O)CC(=O)/C=C/c2ccc(O)cc2Cl)ccc1O`, with 185 to 192 °C.
Then `CC1(C)Oc2ccc(Cl)cc2C12NC(=O)NC2=O` (centres undefined), with 228 to 229 °C; and `O=C(Nc1ccc2nc(-c3ccccc3)oc2n1)c1ccccc1`, with 191 to 192 °C.
In turn, `CN1CCC(OC2c3ccccc3CCn3cc(-c4ccccc4)nc32)CC1` (centres undefined) had a melting point of 113 °C.
As for `FC(F)(F)c1n[nH]cc1-c1nc(Nc2ccccn2)cs1`, the figure is 204 to 206 °C.
In the case of `O=C(O)c1cn(C2CC2)c2cc(Cl)c(F)c(Cl)c2c1=O`, the melting point fell in the range of 277 to 278 °C.
